From patent US11795190B2, “D-glycero-B-D-heptose 1-phosphate (HMP) conjugates and use for targeted immune modulation” (NATIONAL RESEARCH COUNCIL OF CANADA, priority 2017, dated 2023) come the findings set out here.

The subject of experiment [1] is human colonic epithelial cells (HCT 116), wild type. The experiment in a line: IL-8 ELISA in wild type HCT 116 cells after digitonin-permeabilised stimulation. The experiment is classed as cell-based. Particulars: WT HCT 116, digitonin 20 min. Here is the method: (§1) Wild type (WT) or TIFA knockout (TIFA KO) cells were treated with compounds in the presence of digitonin for 20 min, treatment was removed, cells were washed and then cultured in normal medium without the synthetic compounds for 6 hr before IL-8 levels in culture supernatants were measured by ELISA. (A) Cells were treated with water or 10 μg/mL of the indicated compound. Data are means±standard error mean of technical triplicates. (B) Cells were treated with the NOD1 agonist C12-iE-DAP (39.8 μM) or with two different molar concentrations of compounds (30 μM or 150 μM). Two batches of dd-β-HBP and dd-β-HMP synthesized independently of one another were tested (batch #1 and batch #2) to assess consistency of the chemical synthesis. Data are means±standard error mean of two (150 μM treatment) or three (all other treatments) independent experiments. Nod1 agonist: C12-iE-DAP (20 μg/ml, 39.8 μM); JS-12: D-glycero-D-manno-heptose; JS-2: D-glycero-D-manno-heptose 7-phosphate; JS-7:D-glycero-β-D-manno-heptose-phosphate; JS-8: d-glycero-α-d-manno-heptose-phosphate; JS-9: β-d-mannose phosphate; JS-6:d-glycero-β-d-manno heptose 1,7-biphosphate; JS-5: d-glycero-α-d-manno heptose 1,7-biphosphate.
(§2) FIG. 11. Stimulation of human colonic epithelial cells by compounds/products according to the invention. Human colonic epithelial cells (HCT 116) that were either wild type (WT) or deficient in TIFA protein expression (knockout, KO) were stimulated for 20 minutes in permeabilization buffer (5 μg/mL digitonin) in the presence of water or 10 μg/mL, 30 μg/mL, or 50 μg/mL of indicated synthetic compounds according to the invention. Treatment was removed, cells were washed, and cells were incubated for 6 hours in complete media before IL-8 levels in culture supernatants was measured by ELISA. The results are the mean±standard error of the mean of three technical replicates. JS-10: 7-O-(Aminoethyl)-D-glycero-β-D-manno-heptopyranose phosphate; JS-11: 7-O-(Aminoethyl) -D-glycero-D-manno-heptopyranose; JS-12: D-glycero-D-manno-heptose; Js-13: pH-Rhodo -7-O-(aminoethyl)-D-glycero-β-D-manno-heptopyranose phosphate.
FIG. 13. […] Treatment was removed, cells were washed, and cells were incubated for 6 hours in complete media before IL-8 levels in culture supernatants were measured by ELISA. The results are the mean±standard error of the mean of two (150 μM treatment) or three (all other treatments) independent experiments. #=none detected, JS-10: 7-O-(Aminoethyl)-d-glycero-β-d-manno-heptopyranose phosphate; JS-14: Biotin-7-O-(aminoethyl)-d-glycero-β-d-manno-heptopyranose phosphate, Nod1 agonist: C12-iE-DAP (20 μg/ml, 39.8 μM).
FIG. 16. […] Treatment was removed, cells were washed, and cells were incubated for 6 hours in complete media before IL-8 levels in culture supernatants were measured by ELISA. […]
A general note: In an ELISA, binding on a coated surface is turned into a signal by an enzyme label.

For experiment [2], the system named is HCT 116 cells deficient in TIFA protein expression (TIFA KO). The experiment in a line: IL-8 ELISA in TIFA knockout HCT 116 cells. It is filed as cell-based, human. The conditions noted are these: TIFA KO HCT 116. As for the experimental part:
as §1, §2
(§3) FIG. 13. Stimulation of human colonic epithelial cells by compounds/products according to the invention. Human colonic epithelial cells (HCT 116) that were either wild type (WT) or deficient in TIFA protein expression (knockout, TIFA KO) were stimulated for 20 minutes in permeabilization buffer (5 μg/mL digitonin) in the presence of water, 20 μg/mL of the Nod1 agonist C12-iE-DAP (39.8 μM, which induces inflammation in a TIFA-independent manner) or 30 μM or 150 μM of synthetic compound according to the invention. Treatment was removed, cells were washed, and cells were incubated for 6 hours in complete media before IL-8 levels in culture supernatants were measured by ELISA. The results are the mean±standard error of the mean of two (150 μM treatment) or three (all other treatments) independent experiments. #=none detected, JS-10: 7-O-(Aminoethyl)-d-glycero-β-d-manno-heptopyranose phosphate; JS-14: Biotin-7-O-(aminoethyl)-d-glycero-β-d-manno-heptopyranose phosphate, Nod1 agonist: C12-iE-DAP (20 μg/ml, 39.8 μM).
as §3, with “16.” for “13.”, “of” for “of the mean of two (150 μM treatment) or”, “technical replicates. […]” for “(all other treatments) independent experiments. #=none detected, JS-10: 7-O-(Aminoethyl)-d-glycero-β-d-manno-heptopyranose phosphate; JS-14: Biotin-7-O-(aminoethyl)-d-glycero-β-d-manno-heptopyranose phosphate, Nod1 agonist: C12-iE-DAP (20 μg/ml, 39.8 μM).”

The subject of experiment [3] is HEK 293T cells encoding an NF-κB-driven luciferase reporter gene. Briefly: NF-κB-driven luciferase reporter assay in HEK 293T cells. It is filed as cell-based, human. Particulars: digitonin 20 min; for inflammatory NF-κB response (luciferase activity): FIG. 10, WT HEK 293T, 10 μg/mL or 30 μM/150 μM, luciferase after 6 hrs. Here is the method: (§4) FIGS. 10A-B. Effect of chemically synthesised analogues on human embryonic kidney cells (HEK 293T) encoding an NF-κB-driven luciferase reporter gene. NF-κB luciferase activity was measured in wild type (WT) or TIFA knockout (TIFA KO) cells treated with compounds in the presence of digitonin for 20 min, washed, and then cultured in normal medium without the synthetic compounds for 6 hrs after treatment, before luciferase activity was measured. (A) Cells were treated with 10 μg/mL of the indicated compound. Data are means±standard error mean of technical triplicates. (B) Cells were treated with two different molar concentrations of compound (30 μM or 150 μM). Two batches of DD-β-HBP and DD-β-HMP synthesized independently of one another were tested (batch #1 and batch #2) to assess consistency of the chemical synthesis. Data are means±standard error mean of technical triplicates and are representative of three independent experiments. JS-12: D-glycero-D-manno-heptose; JS-2: D-glycero-D-manno-heptose 7-phosphate; JS-7:D-glycero-β-D-manno-heptose-phosphate; JS-8: D-glycero-α-D-manno-heptose-phosphate; JS-9: β-D-mannose phosphate; JS-6:D-glycero-β-D-manno heptose 1,7-biphosphate; JS-5: D-glycero-α-D-manno heptose 1,7-biphosphate.
FIG. 12. Effects of compounds/products according to the invention on HEK 293T cells encoding an NF-κB-driven luciferase reporter gene. HEK 293T cells were transfected with a plasmid encoding an NF-κB-driven luciferase reporter. After 24 hours, cells were stimulated for 20 minutes in permeabilization buffer (5 μg/mL digitonin) in the presence of water or 10 μg/mL, 30 μg/mL, or 50 μg/mL of indicated synthetic compounds according to the invention. Treatment was removed; cells were washed and incubated for 6 hours incomplete medium. A luciferase assay was then performed. JS-12a control: D-glycero-D-manno heptose. The results are the means±standard error of the mean of three technical replicates. JS-10: 7-O-(Aminoethyl)-D-glycero-β-D-manno-heptopyranose phosphate; JS-11: 7-O-(Aminoethyl)-D-glycero-D-manno-heptopyranose; JS-12: D-glycero-D-manno-heptose; Js-13: pH-Rhodo-7-O-(aminoethyl)-D-glycero-β-D-manno-heptopyranose phosphate.
FIG. 14. Effects of compounds/products according to the invention on HEK 293T cells encoding an NF-κB-driven luciferase reporter gene. HEK 293T cells were transfected with a plasmid encoding an NF-κB-driven luciferase reporter. After 24 hours, cells were stimulated for 20 minutes in permeabilization buffer (5 μg/mL digitonin) in the presence of water, or either 30 μM or 150 μM of indicated synthetic compounds according to the invention. Treatment was removed; cells were washed and incubated for 6 hours in complete medium. A luciferase assay was then performed. […]

The test system of experiment [4] is TIFA knockout (TIFA KO) HEK 293T cells encoding an NF-κB-driven luciferase reporter gene. The experiment in a line: NF-κB-driven luciferase reporter assay in TIFA knockout HEK 293T cells. The experiment is classed as cell-based, human. As for the experimental part:
as §4
On the technique in general: In a reporter assay the amount or activity of a reporter protein is the signal.

Experiment [5] deals with human macrophage cells (THP-1). The experiment in a line: IL-8 ELISA in THP-1 cells after digitonin-permeabilised stimulation. Particulars: FIG. 15, higher (150 μM) concentrations, digitonin 20 min, IL-8 after 6 hours. It is filed as cell-based. As for the experimental part:
FIG. 15. Stimulation of human macrophages by compounds/products according to the invention. Human macrophage cells (THP-1) were stimulated for 20 minutes in permeabilization buffer (5 μg/mL digitonin) in the presence of water, 39.8 μM of the Nod1 agonist C12-iE-DAP (which stimulates in a TIFA-independent manner), or either 30 μM or 150 μM of synthetic compound according to the invention. Treatment was removed, cells were washed, and cells were incubated for 6 hours in complete media before the IL-8 levels in culture supernatants were measured by ELISA. The results are the mean and standard error of the mean of three technical replicates. Nod1 agonist: C12-iE-DAP (20 μg/ml, 39.8 μM); JS-7: JS-7:D-glycero-β-D-manno-heptose-phosphate; JS-10: 7-O-(Aminoethyl)-D-glycero-β-D-manno-heptopyranose phosphate; JS-14: Biotin-7-O-(aminoethyl)-D-glycero-β-D-manno-heptopyranose phosphate.

Setting [6] is: FIG. 16, 30 μM or 150 μM (Nod1 agonist 39.8 μM).
Where [7] appears, read: FIG. 17, TIFA KO cells, 30 μM or 150 μM.
[8] abbreviates: FIG. 13, 30 μM or 150 μM (Nod1 agonist 39.8 μM).
Where [9] appears, read: FIG. 9, 10 μg/mL or 30 μM/150 μM, IL-8 after 6 hr.
Setting [10] is: FIG. 9, 10 μg/mL or 30 μM/150 μM.
Where [11] appears, read: FIG. 10, TIFA KO HEK 293T, 10 μg/mL or 30 μM/150 μM.

As to “pH-Rhodo-7-O-(aminoethyl)-D-glycero-β-D-manno-heptopyranose phosphate [JS-13a]”, in experiment [1] (FIG. 11, 10, 30 or 50 μg/mL, IL-8 after 6 hours), the “inflammatory response (IL-8 in culture supernatant)” value was “strong inflammatory response”. Moreover, the “activity in TIFA KO cells (IL-8), TIFA dependence” value (“activity … (IL-8), TIFA dependence” below) in experiment [2] (FIG. 11, 10, 30 or 50 μg/mL) is “relative absence of activity”. Further, in experiment [3] (FIG. 12, HEK 293T, 10, 30 or 50 μg/mL, luciferase after 6 hours), the “inflammatory response (NF-κB luciferase)” value was “strong inflammatory response”. Moreover, the “activity in TIFA KO cells (NF-κB luciferase), TIFA dependence” value in experiment [4] (FIG. 12, TIFA KO cells, 10, 30 or 50 μg/mL) was “relative absence of activity”.
Turning to `O=C(CCCCC1SCC2NC(=O)NC21)NCCOCCOCCOCCOCCC(=O)NCCOC[C@@H](O)C1O[C@@H](OP(=O)(O)O)C(O)C(O)[C@@H]1O` (stereo partly drawn) [JS-24a, Biotin-PEG4-7-O-(aminoethyl)-D-glycero-β-D-manno-heptopyranose phosphate], the “activity … (IL-8), TIFA dependence” value in experiment [2] (setting [6]) is reported as “relative absence of activity”. Besides, the “activity in TIFA KO cells (NF-κB luciferase), TIFA dependence” value in experiment [4] (setting [7]) was “relative absence of activity”.
Regarding `O=C(CCCCC1SCC2NC(=O)NC21)NCCOC[C@@H](O)C1O[C@@H](OP(=O)([O-])[O-])C(O)C(O)[C@@H]1O.[Na+].[Na+]` (stereo partly drawn) [JS-14a], the “activity … (IL-8), TIFA dependence” value in experiment [2] (setting [8]) was “relative absence of activity”. In experiment [4] (FIG. 14, TIFA KO cells, 30 μM or 150 μM), the “activity in TIFA KO cells (NF-κB luciferase), TIFA dependence” value is recorded as “relative absence of activity”. Besides, in experiment [5], the “inflammatory response (IL-8 in culture supernatant)” value is listed as “stimulate an inflammatory response”.
`O=P(O)(O)OC[C@@H](O)[C@H]1O[C@@H](OP(=O)(O)O)[C@@H](O)[C@@H](O)[C@@H]1O` [JS6, D-glycero-β-D-manno heptose 1,7-biphosphate, reference compound]: the “inflammatory response (IL-8 in culture supernatant)” value in experiment [1] (setting [9]) is “inflammatory response”. In addition, in experiment [2] (setting [10]), the “activity … (IL-8), TIFA dependence” value is given as “relative absence of activity”. For the same molecule, in experiment [3], the “inflammatory NF-κB response (luciferase activity)” value was “inflammatory NF-κB response”. Besides, the “activity in TIFA KO cells (NF-κB luciferase), TIFA dependence” value in experiment [4] (setting [11]) is recorded as “relative absence of activity”.
Turning to `CCCCCCCCCCCC(=O)N[C@H](CCC(=O)NC(CCCC(N)C(=O)O)C(=O)O)C(=O)O` (stereo partly drawn) [Nod1 agonist, C12-iE-DAP, reference compound], the “activity … (IL-8), TIFA dependence” value in experiment [2] (setting [8]) and in experiment [2] (setting [6]) was “not TIFA-dependent” each time.
Consider “Fluorescein-7-O-(aminoethyl)-D-glycero-β-D-manno-heptopyranose phosphate [JS-25a]”, for which, in experiment [2] (setting [6]), the “activity … (IL-8), TIFA dependence” value is listed as “relative absence of activity”. Moreover, in experiment [4] (setting [7]), the “activity in TIFA KO cells (NF-κB luciferase), TIFA dependence” value is on record as “relative absence of activity”.
Consider `O=P(O)(O)O[C@@H]1O[C@H]([C@H](O)CO)[C@@H](O)[C@H](O)[C@@H]1O` [JS7, D-glycero-β-D-manno-heptose-phosphate], for which, in experiment [1] (setting [9]), the “inflammatory response (IL-8 in culture supernatant)” value is recorded as “inflammatory response similar to that apparent with DD-β-HBP (JS6)”. In addition, the “activity … (IL-8), TIFA dependence” value in experiment [2] (setting [10]) is listed as “relative absence of activity”. Further, the “inflammatory NF-κB response (luciferase activity)” value in experiment [3] is “inflammatory NF-κB response similar to that apparent with DD-β-HBP (JS6)”. In experiment [4] (setting [11]), the “activity in TIFA KO cells (NF-κB luciferase), TIFA dependence” value is given as “relative absence of activity”.
